In one assay the target is T1, human orexin-1 receptor (Homo sapiens, UniProt O43613).
T1 construct: expressed in transfected cells; host or cells: CHO (Chinese hamster ovary) cells, kept under G418 selection
T1 sequence (O43613 1-425): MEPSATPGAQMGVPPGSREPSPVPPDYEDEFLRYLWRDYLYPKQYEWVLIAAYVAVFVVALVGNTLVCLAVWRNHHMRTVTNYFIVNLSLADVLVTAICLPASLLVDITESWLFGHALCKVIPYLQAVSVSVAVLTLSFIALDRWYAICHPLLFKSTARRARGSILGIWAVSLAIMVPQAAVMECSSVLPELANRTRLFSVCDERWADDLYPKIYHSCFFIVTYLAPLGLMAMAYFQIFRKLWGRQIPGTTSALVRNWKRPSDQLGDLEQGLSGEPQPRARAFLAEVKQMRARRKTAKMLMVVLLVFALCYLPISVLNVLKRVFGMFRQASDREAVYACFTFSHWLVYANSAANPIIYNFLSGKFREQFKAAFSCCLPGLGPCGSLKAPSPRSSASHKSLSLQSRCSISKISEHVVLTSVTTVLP
Description: Intracellular calcium measurement (FLIPR Tetra), orexin receptor antagonistic activity, OX1. It is filed as cell-based. As to conditions: CHO cells expressing human orexin-1 receptor, 3 nM orexin-A, conditions B. The essentials: (§1)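 Recombinant CHO cells expressing human OX1 or OX2, loaded with fluo-4 AM plus probenecid, were preincubated with antagonist 10 min, then stimulated with 3 nM human orexin-A. Peak fluorescence was compared with vehicle; IC50 derived, sometimes normalized to an on-plate reference compound; two pipetting/cell-splitting conditions were used.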
On the technique in general: Calcium assays in cells follow changes in intracellular calcium, usually with a dye or a luminescent sensor.

The target of another assay is T2, human orexin-2 receptor (Homo sapiens, UniProt O43614).
T2 construct: expressed in transfected cells; host or cells: CHO (Chinese hamster ovary) cells, kept under G418 selection
T2 sequence (O43614 1-444): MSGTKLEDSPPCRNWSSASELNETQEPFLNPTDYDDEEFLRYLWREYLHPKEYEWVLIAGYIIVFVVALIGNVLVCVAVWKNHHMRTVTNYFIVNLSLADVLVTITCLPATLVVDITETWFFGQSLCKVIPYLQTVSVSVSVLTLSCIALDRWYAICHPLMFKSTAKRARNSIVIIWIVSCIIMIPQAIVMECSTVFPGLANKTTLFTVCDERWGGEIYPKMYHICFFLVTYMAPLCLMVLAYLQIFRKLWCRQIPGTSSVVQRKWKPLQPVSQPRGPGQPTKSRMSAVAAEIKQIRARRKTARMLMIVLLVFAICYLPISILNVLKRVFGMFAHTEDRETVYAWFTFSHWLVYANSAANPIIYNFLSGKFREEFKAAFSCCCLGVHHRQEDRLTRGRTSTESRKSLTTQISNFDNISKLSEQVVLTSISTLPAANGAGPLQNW
Description: Intracellular calcium measurement (FLIPR Tetra), orexin receptor antagonistic activity, OX2. It is filed as cell-based. As to conditions: CHO cells expressing human orexin-2 receptor, 3 nM orexin-A, conditions B. The essentials: as §1

Setting [1] is: normalized (*) using IC50 of on-plate reference compound.

These results are taken from patent publication US20110212968A1, “PHENETHYLAMIDE DERIVATIVES AND THEIR HETEROCYCLIC ANALOGUES” (priority 2008, published 2011).

In general, IC50 refers to the point on the concentration scale where inhibition reaches its midpoint. Turning to `COc1cccc(-c2cnccc2C(=O)N(CCc2ccc(OC)c(OC)c2)CC2CC2)c1` [Example 389, N-Cyclopropylmethyl-N-[2-(3,4-dimethoxy-phenyl)-ethyl]-3-(3-methoxy-phenyl)-isonicotinamide], the values for the IC50 on human orexin-1 receptor and on human orexin-2 receptor were 282 nM and 6 nM, respectively.

For `COc1ccc(CCN(CC2CC2)C(=O)c2ncccc2-c2cccc(C)c2)cc1OC` [Example 390, 3-m-Tolyl-pyridine-2-carboxylic acid cyclopropylmethyl-[2-(3,4-dimethoxy-phenyl)-ethyl]-amide], the IC50 at human orexin-1 receptor was determined as 182 nM; at human orexin-2 receptor, 4 nM.

As to `COc1ccc(CCN(CC2CC2)C(=O)c2ncccc2-c2ccc(C)cc2)cc1OC` [Example 391], the IC50 came to 388 nM on human orexin-1 receptor and 4 nM on human orexin-2 receptor.

Regarding `COc1cccc(-c2cccnc2C(=O)N(CCc2ccc(OC)c(OC)c2)CC2CC2)c1` [Example 393, 3-(3-Methoxy-phenyl)-pyridine-2-carboxylic acid cyclopropyl-methyl-[2-(3,4-dimethoxy-phenyl)-ethyl]-amide], the IC50 at human orexin-1 receptor turned out to be 108 nM; at human orexin-2 receptor, 3 nM.

With `COc1ccc(CCN(CC2CC2)C(=O)c2cccnc2-c2cccc(C)c2)cc1OC` [Example 394, N-Cyclopropylmethyl-N-[2-(3,4-dimethoxy-phenyl)-ethyl]-2-m-tolyl-nicotinamide], the concentration for half-maximal inhibition (IC50) at human orexin-1 receptor was 156 nM; on human orexin-2 receptor it was 4 nM.

Turning to `COc1ccc(CCN(CC2CC2)C(=O)c2cccnc2-c2ccc(C)cc2)cc1OC` [Example 395, N-Cyclopropylmethyl-N-[2-(3,4-dimethoxy-phenyl)-ethyl]-2-p-tolyl-nicotinamide], the IC50 was 286 nM at human orexin-1 receptor and 10 nM at human orexin-2 receptor.

In the case of `COc1cccc(-c2ncccc2C(=O)N(CCc2ccc(OC)c(OC)c2)CC2CC2)c1` [Example 397, N-Cyclopropylmethyl-N-[2-(3,4-dimethoxy-phenyl)-ethyl]-2-(3-methoxy-phenyl)-nicotinamide], the results for the IC50 on human orexin-1 receptor and at human orexin-2 receptor were 266 nM and 7 nM, respectively.

Turning to `COc1ccc(-c2cccnc2C(=O)N(CCc2c[nH]c3ccc(F)cc23)CC2CC2)cn1` [Example 400, 6′-Methoxy-[3,3′]bipyridinyl-2-carboxylic acid cyclopropylmethyl-[2-(5-fluoro-1H-indol-3-yl)-ethyl]-amide], the figures for the IC50 at human orexin-1 receptor (setting [1]) and on human orexin-2 receptor (setting [1]) were 62 nM and 11 nM, respectively.

`Cc1cncc(-c2cccnc2C(=O)N(CCc2c[nH]c3ccc(F)cc23)CC2CC2)c1` [Example 402, 5′-Methyl-[3,3′]bipyridinyl-2-carboxylic acid cyclopropylmethyl-[2-(5-fluoro-1H-indol-3-yl)-ethyl]-amide]: the IC50 at human orexin-1 receptor (setting [1]) is 700 nM; on human orexin-2 receptor (setting [1]), 72 nM.

With `O=C(c1ncccc1-c1cc(Cl)cnc1F)N(CCc1c[nH]c2ccc(F)cc12)CC1CC1` [Example 403, 5′-Chloro-2′-fluoro-[3,3′]bipyridinyl-2-carboxylic acid cyclopropylmethyl-[2-(5-fluoro-1H-indol-3-yl)-ethyl]-amide], the results for the IC50 at human orexin-1 receptor (setting [1]) and at human orexin-2 receptor (setting [1]) were 3830 nM and 230 nM, respectively.

With `O=C(c1ncccc1-c1cnc2ccccc2c1)N(CCc1c[nH]c2ccc(F)cc12)CC1CC1` [Example 404, 3-Quinolin-3-yl-pyridine-2-carboxylic acid cyclopropylmethyl-[2-(5-fluoro-1H-indol-3-yl)-ethyl]-amide], the IC50 at human orexin-1 receptor (setting [1]) worked out at 58 nM; on human orexin-2 receptor (setting [1]) it was 12 nM.

With `COc1ccc(-c2sc(C)nc2C(=O)N(CCc2c[nH]c3ccc(F)cc23)CC2CC2)cc1C` [Example 410, 5-(4-Methoxy-3-methyl-phenyl)-2-methyl-thiazole-4-carboxylic acid cyclopropylmethyl-[2-(5-fluoro-1H-indol-3-yl)-ethyl]-amide], the figures for the IC50 on human orexin-1 receptor (setting [1]) and on human orexin-2 receptor (setting [1]) were 3650 nM and 145 nM, respectively.

`Cc1nc(C(=O)N(CCc2c[nH]c3ccc(F)cc23)CC2CC2)c(-c2ccc(F)c(CO)c2)s1` [Example 418, 5-(4-Fluoro-3-hydroxymethyl-phenyl)-2-methyl-thiazole-4-carboxylic acid cyclopropylmethyl-[2-(5-fluoro-1H-indol-3-yl)-ethyl]-amide]: the IC50 came out at 148 nM on human orexin-1 receptor (setting [1]) and 13 nM at human orexin-2 receptor (setting [1]).

Regarding `Cc1nc(C(=O)N(CCc2c[nH]c3ccc(F)cc23)CC2CC2)c(-c2ccc(C#N)c(F)c2)s1` [Example 419, 5-(4-Cyano-3-fluoro-phenyl)-2-methyl-thiazole-4-carboxylic acid cyclopropylmethyl-[2-(5-fluoro-1H-indol-3-yl)-ethyl]-amide], the values for the IC50 on human orexin-1 receptor (setting [1]) and at human orexin-2 receptor (setting [1]) were 2510 nM and 100 nM, respectively.

With `COc1nccc(-c2sc(C)nc2C(=O)N(CCc2c[nH]c3ccc(F)cc23)CC2CC2)c1Cl` [Example 420, 5-(3-Chloro-2-methoxy-pyridin-4-yl)-2-methyl-thiazole-4-carboxylic acid cyclopropylmethyl-[2-(5-fluoro-1H-indol-3-yl)-ethyl]-amide], the IC50 on human orexin-1 receptor (setting [1]) stood at 373 nM; at human orexin-2 receptor (setting [1]) it was 83 nM.

With `COc1ccc(-c2sc(C)nc2C(=O)N(CCc2c[nH]c3ccc(F)cc23)CC2CC2)cn1` [Example 421, 5-(6-Methoxy-pyridin-3-yl)-2-methyl-thiazole-4-carboxylic acid cyclopropylmethyl-[2-(5-fluoro-1H-indol-3-yl)-ethyl]-amide], the IC50 came to 34 nM on human orexin-1 receptor (setting [1]) and 4 nM at human orexin-2 receptor (setting [1]).

Turning to `Cc1nc(C(=O)N(CCc2c[nH]c3ccc(F)cc23)CC2CC2)c(-c2ccc(CO)nc2)s1` [Example 423, 5-(6-Hydroxymethyl-pyridin-3-yl)-2-methyl-thiazole-4-carboxylic acid cyclopropylmethyl-[2-(5-fluoro-1H-indol-3-yl)-ethyl]-amide], the IC50 on human orexin-1 receptor (setting [1]) is 1610 nM; at human orexin-2 receptor (setting [1]), 53 nM.

As for `CSc1cncc(-c2sc(C)nc2C(=O)N(CCc2c[nH]c3ccc(F)cc23)CC2CC2)c1` [Example 424, 2-Methyl-5-(5-methylsulfanyl-pyridin-3-yl)-thiazole-4-carboxylic acid cyclopropylmethyl-[2-(5-fluoro-1H-indol-3-yl)-ethyl]-amide], the results for the IC50 at human orexin-1 receptor (setting [1]) and at human orexin-2 receptor (setting [1]) were 180 nM and 47 nM, respectively.

With `Cc1cncc(-c2sc(C)nc2C(=O)N(CCc2c[nH]c3ccc(F)cc23)CC2CC2)c1` [Example 426, 2-Methyl-5-(5-methyl-pyridin-3-yl)-thiazole-4-carboxylic acid cyclopropylmethyl-[2-(5-fluoro-1H-indol-3-yl)-ethyl]-amide], the IC50 on human orexin-1 receptor (setting [1]) was determined as 292 nM; at human orexin-2 receptor (setting [1]) it was 50 nM.

Regarding `Cc1nc(C(=O)N(CCc2c[nH]c3ccc(F)cc23)CC2CC2)c(-c2cnc3ccccc3c2)s1` [Example 428, 2-Methyl-5-quinolin-3-yl-thiazole-4-carboxylic acid cyclopropylmethyl-[2-(5-fluoro-1H-indol-3-yl)-ethyl]-amide], the IC50 came out at 83 nM at human orexin-1 receptor (setting [1]) and 18 nM at human orexin-2 receptor (setting [1]).

Consider `Cc1nc(C(=O)N(CCc2c[nH]c3ccc(F)cc23)CC2CC2)c(-c2ccc3cc[nH]c3c2)s1` [Example 430, 5-(1H-Indol-6-yl)-2-methyl-thiazole-4-carboxylic acid cyclopropylmethyl-[2-(5-fluoro-1H-indol-3-yl)-ethyl]-amide], for which the IC50 on human orexin-1 receptor (setting [1]) worked out at 104 nM; at human orexin-2 receptor (setting [1]), 21 nM.

In the case of `Cc1cccc(-c2sc(CN)nc2C(=O)N(CCc2c[nH]c3ccc(F)cc23)CC2CC2)c1` [Example 433, 2-Aminomethyl-5-m-tolyl-thiazole-4-carboxylic acid cyclopropylmethyl-[2-(5-fluoro-1H-indol-3-yl)-ethyl]-amide], the IC50 on human orexin-1 receptor (setting [1]) was found to be 280 nM; on human orexin-2 receptor (setting [1]), 239 nM.

As to `Cc1ccc(-c2nccnc2C(=O)N(CCN)CCc2c[nH]c3ccc(F)cc23)cc1C` [Example 434, 3-(3,4-Dimethyl-phenyl)-pyrazine-2-carboxylic acid (2-amino-ethyl)-[2-(5-fluoro-1H-indol-3-yl)-ethyl]amide], the IC50 on human orexin-1 receptor (setting [1]) was greater than 5420 nM; on human orexin-2 receptor (setting [1]), 816 nM.

Consider `CNc1nc(C(=O)N(CCc2c[nH]c3ccc(F)cc23)CC2CC2)c(-c2cccc(C)c2)s1` [Example 435, 2-Methylamino-5-m-tolyl-thiazole-4-carboxylic acid cyclopropylmethyl-[2-(5-fluoro-1H-indol-3-yl)-ethyl]amide], for which the IC50 on human orexin-1 receptor (setting [1]) turned out to be 54 nM; on human orexin-2 receptor (setting [1]) it was 32 nM.
